Source: patent publication US11944601B2, “Applications of ellagic acid in preparation of immunomodulatory medicines for treatment of neuromyelitis optica or immune rejection after skin transplantation” (priority 2022, dated 2024)

Columns and labels:
[1] = system: Th1, Th17 and Treg cells in the peripheral immune system; experiment: Skin transplantation model, spleen cells of receptor mice by flow cytometry; format: in vivo; conditions: day 7, cultured 72 hours
Procedure: (§1) The donor BALB/c mice were sacrificed, the dorsal hair was removed with a shaver. Appropriately sized skin grafts were cut, peeled off, washed, immersed in sterilized saline containing antibiotics for 5 minutes, and finally stored on ice for backup. The receptor C57BL/6 mice were intraperitoneally injected with 0.5% of pentobarbital sodium injection according to the body weight of 0.15 mL/20 g. After the mice were anesthetized, they were fixed on a surgical plate, the mid-dorsal parts of the mice body slightly to the lefts were selected as operation areas. Mice were shaved and disinfected with 75% alcohol to prepare graft beds. The prepared donor skin sheet was placed on the predetermined transplantation bed of recipient mice and then flattened. The skin patch was sutured to the transplant bed by discontinuous suture with 6-0 sutures. The recipient mice were administered therapeutic medicines from the day of surgery. […] The spleens of the receptor mice were taken on the 7th day to isolate single cells for flow cytometer detection. The supernatant of splenocytes was collected for enzyme-linked immunosorbent assay (ELISA).

Th17 cells = experiment: Th17 polarization of spleen cells in vitro, flow cytometry; format: cell-based, mice; conditions: for polarization of Th17 cells: 3 days; for polarization of Th17 cells / Th1 cells (IFN-γ): flow cytometry; for inhibitory effect on Th17 / IL17 at 5 μM compared with the lower concentration: 5 μM vs 2.5 μM (EA) or 1 μM (URA)
Procedure: (§2) Single-cell suspension of spleen isolated from normal female C57BL/6 mice (aged 8-10 weeks) was co-cultured with anti-CD3 (0.5 μg/mL), anti-CD28 (1 μg/mL), TGF-β (2 ng/mL), IL-6 (20 ng/mL), IL-1 β (10 ng/mL), anti-IL-4 (10 μg/mL) and anti-IFN-γ (10 μg/mL) for 3 days to induce differentiation into Th17 cells. Cells were cultured with anti-CD3 (0.5 μg/mL), anti-CD28 (1 μg/mL), TGF-β (2 ng/mL) and IL-2 (10 ng/ml) for 3 days to induce differentiation into Treg cells. Cytokines were detected by flow cytometry.

EAE mice [2] = experiment: EAE mice, spinal cord pathological sections (H&E, LFB, MBP staining); format: in vivo; conditions: for demyelination of white matter of spinal cord (LFB) / infiltration of spinal cord inflammatory cells (H&E): day 20 p.i., EA lumbosacral, URA cervical enlargement of spinal cord
EAE mice [3] = experiment: EAE mice, clinical scores; format: in vivo; conditions: for EAE clinical score / course of disease: administered from day 0 of immunization (prevention stage); for EAE clinical score / course of disease / EAE clinical score / development of EAE: EA intraperitoneally, URA 25 mg/kg
IFN-γ and IL-17 = experiment: Skin transplantation model, ELISA of splenocyte culture supernatant; format: in vivo, mice
Procedure: as §1

Treg cells = experiment: Treg polarization in vitro, flow cytometry; format: cell-based, mice; conditions: 0.5-2 μM, 3 days
Procedure: as §2

[4] = system: skin transplantation model; experiment: Skin transplantation model, H&E staining of skin grafts; format: in vivo; conditions: BALB/c skin on C57BL/6 mice
colitis mice = experiment: DSS-induced acute colitis in mice; format: in vivo; conditions: 100 mg/kg/d, 2.5% DSS 7 days
Procedure: The mice were randomly divided into control group and EA treatment group. 2.5% (w/v) of dextran sodium sulfate (DSS) was added to drinking water continuously for 7 days to induce acute colitis, and mice in the treatment group were fed 100 mg/kg/d EA. During the experiment, mice were weighed regularly every day and the percentage change was calculated. In addition, the feces characteristics of mice were observed every day and divided into three grades according to the methods of Berberat et al. 1: normal, 2: increased stool viscosity and easily dispersed, 3: watery diarrhea. Moreover, hidden blood of mouse feces was measured by pyramidon method. If the mouse feces contained reddish-brown or bright red blood visible to the naked eye, it was determined as fecal blood. Finally, the disease activity index (DAI) of mice was calculated according to the scoring criteria of Berberat et al. The whole segment of colon from anus to the end of cecum of mice was taken, the length was measured and photographed for recording.

EAE mice [5] = experiment: EAE mice, CNS-infiltrating mononuclear cells by flow cytometry; format: in vivo
Procedure: EAE mice were randomly divided into EA groups and URA groups. EA groups were divided into blank control group, fingolimod (FTY-720) positive control group (0.1 mg/kg) and EA administration group (0.1 mg/kg). URA groups were divided into blank control group and URA administration group (25 mg/kg). To induce EAE, mice were immunized at two sites on the back with 200 μg of myelin oligodendrocyte glycoprotein peptide 35-55 (MOG35-55) (Genescript) in 200 μL of emulsion containing 50% complete Freund's adjuvant with 5 mg/ml Mycobacterium tuberculosis H37Ra (Difco). All mice were i.p. injected with 200 ng pertussis toxin (Sigma-Aldrich) in PBS on days 0 and 2 postimmunization (p.i.). Ellagic acid (EA) and its metabolic derivative URA were purchased from Ark Pharm, Inc and respectively administered to EAE mice on the day of immunization, the 11th day p.i and the 17th day p.i.
Mice were sacrificed at day 20 p.i. Approximately 0.5 cm of the lumbosacral enlarged spinal cord was removed from the sacrificed mouse and fixed in 4% (w/v) paraformaldehyde. […]
For flow cytometry surface marker staining, the cells were incubated with surface-stained fluorescent microsphere-coupled antibodies or isotype control antibodies on ice for 30 min. […] Data were further detected by flow cytometry and analyzed by Flowjo software (Treestar, Ashland, OR).

[6] = system: NMO-IgG induced cerebral lesion in mice; experiment: NMO-IgG induced cerebral lesion in mice, AQP4 and MBP staining of brain slices; format: in vivo; conditions: 2 mg/kg/d from three days before surgery; fifth day of modeling
Source text: Female C57BL/6 mice aged 6-8 weeks were purchased from Air Force Military Medical University (Xi'an, China). Mice were fed under standard light and temperature conditions. All experimental procedures and protocols were approved by the institutional animal ethics Committee of Shaanxi Normal University and carried out in accordance with the approved institutional guidelines and regulations.
WO mice were randomly divided into control group and EA group. In order to induce WO, mice were first anesthetized with 10% (w/v) of chloral hydrate and installed on a brain stereotactic apparatus (RWD Life Science), then the mouse scalp was cut along the midline, a small hole with a diameter of 1 mm was drilled on the skull 2 mm on the right side of the anterior fontanelle, and finally 5 μL microinjector (Hamilton) was inserted 3 mm deep and 2 μL of NMO-IgG and 3 μL of complement were injected at a rate of 1 μL/min. EA (2 mg/kg/d) and control solvents were administered to WO mice three days before surgery.
The mice were sacrificed on the fifth day of modeling. The brain tissue was removed from the mice and fixed in 4% (w/v) of paraformaldehyde. The frozen sections were stained with AQP4 and MBP.

[7] = system: IL-17 family-related genes; experiment: RT-qPCR of Th17-related genes in naïve CD4+ T cells under Th17 polarizing conditions; format: cell-based, mice; conditions: 4 h, vs PBS
Procedure: Total RNA was extracted by using RNAprep Pure Cell/Tissue Kit (TIANGEN) and then reverse transcribed with Hiscript QRT Supermix (Vazyme) according to the manufacturer's instructions. mRNA expression was determined by real-time quantitative PCR using 2×ChamQ™ SYBR® qPCR Master Mix (Vazyme). Data was quantitatively analyzed on Roche Molecular Biochemicals Light Cycler Software Version 3.5. Mouse GAPDH gene was used as endogenous control for sample normalization.

[8] = administered from onset stage (day 11 p.i.)
[9] = administered from peak period (day 17 p.i.)

Compound: O=c1oc2c(O)c(O)cc3c(=O)oc4c(O)c(O)cc1c4c23 [EA, ellagic acid]
- Th1 inflammatory cells [1]: significantly inhibited
- Th17 inflammatory cells [1]: significantly inhibited
- proportion of anti-inflammatory cell Treg [1]: increased
- polarization of Th17 cells (Th17 cells; 2.5 μM): significantly inhibited
- inhibitory effect on Th17 / IL17 at 5 μM compared with the lower concentration (Th17 cells): better
- polarization of Th17 cells (Th17 cells; 5 μM): significantly inhibited
- demyelination of white matter of spinal cord (LFB) (EAE mice [2]): significantly attenuated
- infiltration of spinal cord inflammatory cells (H&E) (EAE mice [2]): significantly attenuated
- therapeutic effect in EAE compared with fingolimod (FTY-720) (EAE mice [3]; EA 0.1 mg/kg vs FTY-720 0.1 mg/kg): equivalent
- EAE clinical score / course of disease (EAE mice [3]): inhibited the course of disease
- EAE clinical score / development of EAE (EAE mice [3]; [8]): significantly inhibited
- EAE clinical score / development of EAE (EAE mice [3]; [9]): significantly inhibited
- progress of EAE disease (EAE mice [3]; oral administration from day 0 of immunization, dosage 250 times that of injection): effectively alleviate the progress of the disease
- content of IFN-γ in supernatant of splenocytes (IFN-γ and IL-17): significantly reduced
- content of IL-17 in supernatant of splenocytes (IFN-γ and IL-17): significantly reduced
- effect on IFN-γ and IL-17 content compared with CsA (IFN-γ and IL-17): better than that of CsA
- polarization of naïve CD4+T towards Treg (Treg cells): promote the polarization of naïve CD4+T towards Treg in a dose-dependent manner
- infiltration of inflammatory cells in the grafted skin [4]: significantly inhibited
- colon length (colitis mice): significantly restored
- DAI score (colitis mice; vs DSS control group): decreased significantly
- percentage of weight loss (colitis mice; vs DSS control group): significantly lower
- absolute number of CD45+, CD45+CD4+, CD4+IL-17+, CD4+IFN-γ+ and CD4+GM-CSF+ cells infiltrating into the CNS (EAE mice [5]): significantly reduced
- absolute number of pro-inflammatory microglia and macrophages infiltrating into CNS (CD45high+CD11b+, CD45low+CD11b+, CD11b+MHC II+, CD11b+TNF-α+, CD11b+Nos2+) (EAE mice [5]): decreased
- AQP4 protein loss rate [6]: lower than that in control group
- degree of demyelination (MBP) [6]: decreased

Compound: O=c1oc2cc(O)ccc2c2ccc(O)cc12 [URA, urolithin A]
- dose dependence of inhibition on IFN-γ (Th17 cells; 1 μM and 5 μM): no dose-dependent inhibition
- polarization of Th17 cells (Th17 cells; 1 μM): significantly inhibited
- Th1 cells (IFN-γ) (Th17 cells; 1 μM): significantly inhibited
- inhibitory effect on Th17 / IL17 at 5 μM compared with the lower concentration (Th17 cells): more significantly
- polarization of Th17 cells (Th17 cells; 5 μM): significantly inhibited
- Th1 cells (IFN-γ) (Th17 cells; 5 μM): significantly inhibited
- proportion of intact myelin sheath in the spinal cord (MBP) (EAE mice [2]; compared with control mice): significantly increased
- demyelination of white matter of spinal cord (LFB) (EAE mice [2]): significantly relieved
- infiltration of spinal cord inflammatory cells (H&E) (EAE mice [2]): significantly relieved
- EAE clinical score / course of disease (EAE mice [3]): reduced the clinical scores
- EAE clinical score / development of EAE (EAE mice [3]; [8]): reduced the clinical scores
- EAE clinical score / development of EAE (EAE mice [3]; [9]): reduced the clinical scores
- expression level of IL-17 family-related genes [7]: decreased
- expression of Foxp3 [7]: promoted the expression of Foxp3 to a certain extent
